Results published in patent US20260217691A1, “FOXM1 INHIBITORS AND THEIR USE IN TREATING CANCERS” (THE BOARD OF TRUSTEES OF THE UNIVERSITY OF ILLINOIS, priority 2022, published 2026).

Tests used:
OVCAR-8, ES-2 cells = experiment: Chemosensitization (caspase-3 cleavage) of ovarian cancer cells to doxorubicin; format: cell-based, human
Protocol: (§1) FIG. 16. […] (A) Ovarian cancer (OVCAR-8 and ES-2) cells were treated with indicated concentrations of Doxorubicin (Doxo) alone or in combination with STL001 for 24 hrs. […] (C) colon cancer (HCT-116 and FET) cells were treated with indicated concentrations of 5′FU alone or in combination with STL001 for 24 hrs.

[1] = tested on: HCT-116 and HCT-FET cells; experiment: Chemosensitization (caspase-3 cleavage) of colorectal cancer cells to 5′FU; format: cell-based, human
Protocol: as §1

22RV1, LNCaP cells = tested on: 22RV1, LNCaP cells
Protocol: (§2) FIG. 17. […] (A) Prostate cancer (22RV1 and LNCaP) cells were treated with indicated concentrations of paclitaxel alone or in combination with STL001 for 24 hrs. (B) Tamoxifen resistance MCF-7 breast cancer cells (TAM-R) were treated with indicated concentrations of Tamoxifen alone or in combination with STL001 for 24 hrs. In all cases, total protein samples were obtained from cells immediately after treatment and analyzed for FOXM1, cleaved caspase-3 levels via immunoblotting, β-actin was used as internal loading control (n=3). (C) Percent (%) dead cells in TAM-R cells treated with indicated concentrations of Tamoxifen alone or in combination with STL001 for 24 hrs. […] (F) HCC 143 cells with stable shRNA-mediated FOXM1 knockdown (KD) were treated with doxorubicin alone or in combination with STL001 for 24 hrs and compared to parental cells under the same treatment conditions. In all cases, total protein samples were obtained from cells immediately after treatment and analyzed for FOXM1, cleaved caspase-3 levels via immunoblotting, β-actin was used as internal loading control (n=3).

HCC-1143 cells = conditions: HCC-1143 FOXM1-KD, doxorubicin
Protocol: as §2
Stable FOXM1-expression knockdown in cancer cell: Cells were seeded on commercially available 12-well tissue culture plates to achieve ~40% confluency. […] Transduced cells were selected by their cultivation with puromycin (1.0 μg/mL) for 10 days and then maintained without puromycin as described above.

FLO-1 cells = experiment: Chemosensitization of esophageal adenocarcinoma cells; format: cell-based; conditions: 24 hrs
Text: In all cases, total protein samples were obtained from cells immediately after treatment and analyzed for FOXM1, cleaved caspase-3 levels via immunoblotting, β-actin was used as internal loading control (n=3). […] In all cases, total protein samples were obtained from cells immediately after treatment and analyzed for FOXM1 and cleaved caspase-3 levels via immunoblotting, β-actin was used as internal loading control.

FOXM1 = target: T1, FOXM1 (Homo sapiens, UniProt Q08050); experiment: Immunohistochemistry for nuclear FOXM1 in primary AML samples treated ex vivo; format: cell-based; design: Total protein samples obtain from treated cells were analyzed for FOXM1 protein levels via immunoblotting; endogenous in cells; host or cells: KG-1, HL-60, K562, THP-1 leukemia cell lines; conditions: primary AML samples (n=4), 24 h, 43% for DMSO, p=0.06
T1 sequence (Q08050 1-763): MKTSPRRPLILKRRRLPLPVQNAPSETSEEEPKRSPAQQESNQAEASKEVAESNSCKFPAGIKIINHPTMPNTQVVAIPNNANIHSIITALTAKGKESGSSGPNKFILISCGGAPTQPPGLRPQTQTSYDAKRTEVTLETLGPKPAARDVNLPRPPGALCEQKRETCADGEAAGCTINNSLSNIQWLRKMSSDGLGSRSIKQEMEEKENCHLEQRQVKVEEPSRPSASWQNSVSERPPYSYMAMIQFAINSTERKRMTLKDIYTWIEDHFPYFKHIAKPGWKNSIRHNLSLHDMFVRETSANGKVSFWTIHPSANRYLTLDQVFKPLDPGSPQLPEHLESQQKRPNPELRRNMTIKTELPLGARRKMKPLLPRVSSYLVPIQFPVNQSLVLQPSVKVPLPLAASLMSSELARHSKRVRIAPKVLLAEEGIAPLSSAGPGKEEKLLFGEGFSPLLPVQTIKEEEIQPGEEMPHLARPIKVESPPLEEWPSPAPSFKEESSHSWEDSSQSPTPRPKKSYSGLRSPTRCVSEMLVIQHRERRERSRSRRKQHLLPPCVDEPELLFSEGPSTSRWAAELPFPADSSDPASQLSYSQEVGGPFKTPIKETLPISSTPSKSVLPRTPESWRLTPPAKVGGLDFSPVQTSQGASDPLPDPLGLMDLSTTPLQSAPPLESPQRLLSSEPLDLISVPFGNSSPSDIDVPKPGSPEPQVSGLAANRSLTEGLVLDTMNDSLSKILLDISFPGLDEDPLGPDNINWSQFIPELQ
Protocol: FIGS. 13A-13H STL001 is a novel FOXM1 inhibitor that sensitizes leukemia cells to standard cytotoxic and bcl2 inhibitor therapies. FIG. 13A AML cell line KG-1 treated with precursor compound STL427944. FIG. 3B AML cell lines KG-1, HL-60, and K562 were treated with increasing concentrations of STL001 for 24 h. Total protein samples obtained from treated cells were analyzed for FOXM1 protein levels using immunoblotting; β-actin was used as the internal loading control. FIG. 13C KG-1, HL-60, and K562 cells were treated with indicated concentrations of venetoclax and STL001 alone or in combination for 24 h. FIG. 13D KG-1, HL-60, and K562 cells were treated with indicated concentrations of cytarabine and STL001 alone or in combination for 24 h. […] Total protein samples obtained from treated cells were analyzed for FOXM1 protein levels via immunoblotting; β-actin was used as an internal loading control. […] Slides were scanned on an Aperio AT2 brightfield scanner and images were analyzed using HALO 2.0 software. […]
In addition, primary AML samples (n=4) were treated ex vivo with STL001 and slides were scanned on an Aperio AT2 brightfield scanner and images were analyzed using HALO 2.0 software. The % of nuclei staining positive for FOXM1 was calculated per cell and averaged per slide to analyze FOXM1 protein expression and localization. […]

Compound: O=C(Oc1cccc(-c2ccn(-c3nc(Nc4ccccc4)nc(N4CCOCC4)n3)n2)c1)c1ccco1 [STL001]
- cytotoxic effects as a single agent (OVCAR-8, ES-2 cells): did not exert significant cytotoxic effects
- apoptotic cell death (caspase-3 cleavage) in combination with doxorubicin (OVCAR-8, ES-2 cells; 24 hrs): potent induction of apoptotic cell death
- sensitivity to cytotoxic effects of 5′FU in combination [1]: significantly enhanced the sensitivity of colorectal cancer cells to cytotoxic effects of 5′FU therapy
- cytotoxic effects (caspase-3 cleavage) in combination with taxol (22RV1, LNCaP cells): enhanced the cytotoxic effects of taxol-therapy
- sensitization effect in FOXM1 deficient cells (HCC-1143 cells): absent
- sensitization to Cisplatin, 5′FU, Paclitaxel, Irinotecan (FLO-1 cells): sensitizes esophageal adenocarcinoma cells (FLO-1) to conventional chemotherapeutic drugs
- % of nuclei expressing FOXM1 after treatment (FOXM1): 29%
